Data on 1 compound can be found in article PMC9124651, “High-performance thin-layer chromatography in combination with an acetylcholinesterase-inhibition bioassay with pre-oxidation of organothiophosphates to determine neurotoxic effects in storm, waste, and surface water” (Analytical and Bioanalytical Chemistry, 2022).

Holding throughout (assay type): biochemical
In test [1] the target is T1, AChE from electric eel (Electrophorus electricus) (Electrophorus electricus, UniProt O42275).
T1 construct: purchased Sigma-Aldrich GmbH (Steinheim, Germany)
T1 sequence (O42275 24-633): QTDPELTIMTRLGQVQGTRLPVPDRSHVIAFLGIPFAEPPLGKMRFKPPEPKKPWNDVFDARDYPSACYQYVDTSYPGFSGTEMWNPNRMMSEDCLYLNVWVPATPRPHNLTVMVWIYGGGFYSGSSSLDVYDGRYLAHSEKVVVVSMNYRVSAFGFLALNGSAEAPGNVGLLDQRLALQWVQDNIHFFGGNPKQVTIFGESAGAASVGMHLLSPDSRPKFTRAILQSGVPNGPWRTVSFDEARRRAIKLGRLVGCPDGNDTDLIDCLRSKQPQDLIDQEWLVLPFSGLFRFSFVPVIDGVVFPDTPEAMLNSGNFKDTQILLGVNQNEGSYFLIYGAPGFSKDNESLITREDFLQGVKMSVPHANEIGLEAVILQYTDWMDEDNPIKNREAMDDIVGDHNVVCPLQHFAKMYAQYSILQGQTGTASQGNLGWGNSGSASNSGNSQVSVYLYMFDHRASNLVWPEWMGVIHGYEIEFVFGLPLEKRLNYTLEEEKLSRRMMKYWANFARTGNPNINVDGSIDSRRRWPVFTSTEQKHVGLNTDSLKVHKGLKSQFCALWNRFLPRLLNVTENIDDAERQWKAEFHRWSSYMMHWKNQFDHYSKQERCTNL
Briefly: HPTLC-(Ox)-AChE-I assay, spray method (AChE sprayed onto plates). The conditions noted are these: spray method; without oxidation; OTPs 100 µL, oxons 10 µL applied; peak heights, n = 3. How it is done: (§1) LiChrospher 10 × 20 cm HPTLC Silica gel 60 F254s plates (Merck, Darmstadt, Germany) with a layer thickness of 170–190 µm and spherical silica particles with a size of 7 µm were used. The HPTLC plates were immersed twice in 2-propanol for 20 min, each time followed by a drying step at room temperature for 20 min. The plates then were pre-developed with methanol, dried for 20 min at room temperature, heated at 105 °C for 20 min, and stored in a desiccator for further use. The automatic TLC Sampler 4 (ATS 4, CAMAG AG, Muttenz, Switzerland) was used for sample application. The desired sample volumes were sprayed as 6-mm-wide bands onto the HPTLC plates with an application speed of 300 nL/s. The distances of the exterior bands from the edges of the plates were 15 mm. The distance from the bottom edge was 8 mm for all bands. Methanol was used as rinsing solvent. The following further application parameters were used: filling speed 15 µL/s, pre-dosage volume 200 nL, retraction volume 200 nL, rinsing vacuum time 4 s, filling vacuum time 0 s, rinsing cycles 2, and filling cycles 1. The development of the HPTLC plates was realized by the Automated Multiple Development 2 (AMD 2, CAMAG, Muttenz, Switzerland). The OTPs, their oxons, and environmental samples were separated with an eluent mixture of cyclohexane, dichloromethane, and acetone in different proportions and with increasing migration distances (Fig. S2). After each development step, a drying step of 3 min under vacuum followed. The final migration distance was 80 mm and the whole procedure took approximately 45 min. In addition, a simpler development process was used containing only the last step of the previous described method.
(§2) The following AChE-I assay was performed in parts according to Mendoza et al., Stütz et al., and Weins and Jork. AChE was buffered in TRIS/HCl at a pH of 7.8 (2.5 U/mL). The AChE solution was either sprayed onto the HPTLC plates with a glass reagent sprayer until the plates were evenly moist (approx. 10 mL) or the plates were immersed in the AChE solution using the Chromatogram Immersion Device 3 (CID 3, CAMAG, Muttenz, Switzerland). The immersion volume, speed, time, and depth were approx. 200 mL, 2.5 cm/s, 2 s, and approx. 85 mm, respectively. Afterward, the plates were placed separately in closed plastic boxes, which contained paper towels moistened with water to gain a saturated atmosphere. An incubation at 37 °C for 5 min followed. The substrate indoxyl acetate was freshly prepared in methanol at a concentration of 20 mg/mL and 5 mL was sprayed onto the HPTLC plates with a glass reagent sprayer. During 45-min incubation time at room temperature, AChE cleaves the substrate into indoxyl and acetate. The indoxyl reacts with oxygen to the blue indigo dye. When AChE was inhibited, no indigo was produced and the spot stayed white. The TLC Scanner 3 (CAMAG, Muttenz, Switzerland) was used to scan each track on the plates at 670 nm using the fluorescence mode without optical filter. The CAMAG-embedded software Wincats (Vers. 1.4.9) was used to provide chromatograms of each track and to evaluate inhibition zones.
Several amounts of an OTP mix and an oxon mix were applied on HPTLC plates (Tab. S2) and tested as described in the “Combination of HPTLC and AChE-inhibition assay” section. Three plates were used for each dilution series. The application volume was 10 µL for investigating OTPs with following oxidation and 100 µL for testing OTPs without following oxidation. The application volume for the oxons was 10 µL. They were tested without oxidation step also in triplicates. The peak heights were used for evaluation. Only peaks that have a signal-to-noise ratio ≥ 3 were considered in the evaluation. The height next to the respective peak defines the noise.

In test [2] the target is T1, AChE from electric eel (Electrophorus electricus). The experiment in a line: AChE-inhibition microtiter assay (Ellman, 96-well, with or without NBS oxidation). The conditions noted are these: no oxidation, 4-PL fit, n = 4. The procedure:
Stock solutions (1 mg/mL) of NBS and ascorbic acid were each freshly prepared before the test and then diluted to 10 µg/mL and 100 µg/mL, respectively. The assay was performed with modifications according to Ellman’s method. OTPs, oxons, water, and methanol blanks (15 µL) were each mixed with 15 µL of NBS (10 µg/mL) in a 96-well plate. After an incubation at room temperature for 5 min, the reaction was stopped by adding 15 µL ascorbic acid (100 µg/mL). For the test setup without oxidation, OTPs, oxons, water, and methanol blanks (15 µL) were mixed with 30 µL water per well. Subsequently, 200 µL of a DTNB solution (0.15 mM), buffered in TRIS/HCl at a pH of 7.4, was added to each well of both test setups. Then, 20 µL of an AChE solution (0.5 U/mL), also buffered in TRIS/HCl at a pH of 7.4, was added. An incubation at 30 °C for 30 min without shaking followed. An ATCL solution (0.8 mM) was freshly prepared with water and 30 µL per well was added after incubation. During another incubation at room temperature for 30 min, ATCL was cleaved by AChE into thiocholine and acetic acid. Thiocholine reacts with DTNB to 2-nitro-5-thiobenzoate. The absorbance of the yellow-colored anion was photometrically measured at 405 nm (Sunrise Remote, Tecan Group AG, Männedorf, Schweiz).
Dilution series with eight concentrations of the three OTPs and related oxons (Tab. S1) were freshly prepared from stock solutions (1–10 mg/mL) in methanol. The OTPs and oxons were tested in duplicates with and without prior oxidation in two measurements as described in the “AChE-inhibition microtiter assay” section. Eight water and eight methanol blanks were tested per test setup (oxidation and no oxidation). Of these, two were tested without AChE and two without ATCL. The mean AChE activity (absorption at 405 nm, n = 4) was related to the specific inhibitor dose. The statistic program Prism (version 5.00, Graph Pad Software, San Diego, USA) was used to generate dose–response curves (4-PL fit) and to determine inhibition concentrations (ICs) for the three OTPs and related oxons. The 95% confidence intervals of the curves and the standard deviations of the mean AChE activity were also calculated. The lower boundary of the curves is fixed to 0 and the highest mean activity defines 100%.

Test [3] has the same target. The experiment in a line: HPTLC-(Ox)-AChE-I assay, immersion method (plates immersed in AChE solution). The settings on record: without oxidation, OTPs 100 µL, oxons 10 µL applied, peak heights, n = 3. How it is done:
as §1
as §2, with “After chromatographic development, 10 mL of freshly prepared NBS (100 µg/mL) was sprayed onto the HPTLC plates with a glass reagent sprayer, followed by a 5-min incubation at room temperature. The following” for “The following”
Several amounts of an OTP mix and an oxon mix were applied on HPTLC plates (Tab. S2) and tested as described in the “Combination of HPTLC and AChE-inhibition assay” section. Three plates were used for each dilution series. The application volume was 10 µL for investigating OTPs with following oxidation and 100 µL for testing OTPs without following oxidation. The application volume for the oxons was 10 µL. They were tested without oxidation step also in triplicates. The peak heights were used for evaluation. Only peaks that have a signal-to-noise ratio ≥ 3 were considered in the evaluation. The height next to the respective peak defines the noise. […]

In brackets after ≈: the same amount, converted by molar mass.

With `CCOP(=O)(OCC)Oc1ccc([N+](=O)[O-])cc1` [Paraoxon, paraoxon], in test [1], the “IC10 (10% AChE inhibition), best fit” value was determined as 0.79 ng/spot; the “IC20 (20% AChE inhibition), best fit” value is given as 1.2 ng/spot; the “IC80 (80% AChE inhibition), best fit” value was found to be 5.9 ng/spot. Moreover, in test [2] (read-out: IC20 (inhibition concentration for 20% AChE activity), best fit), the IC80 was determined as 0.071 µg/mL (≈ 0.258 µM). The IC20 in test [2] (read-out: IC80 (inhibition concentration for 80% AChE activity), best fit) turned out to be 0.016 µg/mL (≈ 0.0581 µM). Besides, in test [3], the “IC10 (10% AChE inhibition), best fit” value is 0.60 ng/spot; the “IC20 (20% AChE inhibition), best fit” value is listed as 0.99 ng/spot; the “IC80 (80% AChE inhibition), best fit” value is 5.4 ng/spot.
